The record followed here is patent EP0595557A1, “New substituted azetidinones as anti-inflammatory and antidegenerative agents” (MERCK & CO. INC., priority 1992, dated 1994).

This assay has as its target T1, Human Polymorphonuclear Leukocyte Elastase (Homo sapiens, UniProt P08246).
T1 construct: Crude extract of human polymorphonuclear leukocytes (PMN) containing elastase activity; from tissue; host or cells: human polymorphonuclear leukocytes (crude extract)
T1 sequence (P08246 30-267): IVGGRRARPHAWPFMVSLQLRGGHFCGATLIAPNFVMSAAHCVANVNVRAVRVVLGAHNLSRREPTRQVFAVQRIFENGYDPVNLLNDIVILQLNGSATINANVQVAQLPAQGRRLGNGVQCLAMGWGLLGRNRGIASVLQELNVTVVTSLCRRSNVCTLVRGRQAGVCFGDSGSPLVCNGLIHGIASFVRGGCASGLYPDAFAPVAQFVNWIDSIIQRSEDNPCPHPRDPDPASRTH
Put plainly: Enzyme assay for inhibition of human polymorphonuclear leukocyte elastase via hydrolysis of Boc-AAPAN or Boc-AAPVN. The format is biochemical. To be noted: pH 7.5, second order rate constant for inactivation of the enzyme, expressed to the nearest thousand, read-out: Kobs/[I]. In a few lines:
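Crude human PMN extract as enzyme source, with 0.2 mM Boc-AAPAN in 0.05M TES buffer pH 7.5. Inhibitors in DMSO were added to substrate before the extract, and rate was followed as ΔOD/min at 410 mµ. Values are kobs/I, the second-order inactivation rate constant (per mole per second).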

Turning to `C=CCN(CCN(C)C(=O)c1ccc(O[C@@H]2N(C(=O)N[C@H](CCC)c3ccc(C)cc3)C(=O)C2(CC)CC)cc1)C(C)(C)C=C` [Compound 231], the kinact/KI worked out at 925000 M⁻¹ s⁻¹.

Consider `CCC[C@@H](NC(=O)N1C(=O)C(CC)(CC)[C@@H]1Oc1ccc(C(=O)N(C)CCN(C)C2CCC(CC)CC2)cc1)c1ccc(C)cc1` (some centres unmarked) [Compound 232], for which the kinact/KI worked out at 2.48e+06 M⁻¹ s⁻¹.

For `CCC[C@@H](NC(=O)N1C(=O)C(CC)(CC)[C@@H]1Oc1ccc(C(=O)N2CCN(c3ccc(F)cc3)CC2)cc1)c1ccc(C)cc1` [Compound 243], the kinact/KI came to 7.49e+06 M⁻¹ s⁻¹. Take `CCC[C@@H](NC(=O)N1C(=O)C(CC)(CC)[C@@H]1Oc1ccc(C(=O)N2CCN(c3cccc(Cl)c3)CC2)cc1)c1ccc(C)cc1` [Compound 244]: the kinact/KI came out at 2.45e+06 M⁻¹ s⁻¹.

With `CCC[C@@H](NC(=O)N1C(=O)C(CC)(CC)[C@@H]1Oc1ccc(C(=O)N2CCN(c3ccccc3)CC2)cc1)c1ccc(C)cc1` [Compound 245], the kinact/KI worked out at 5.28e+06 M⁻¹ s⁻¹.

As for `CCC[C@@H](NC(=O)N1C(=O)C(CC)(CC)[C@@H]1Oc1ccc(C(=O)N2CCN(Cc3ccccc3)CC2)cc1)c1ccc(C)cc1` [Compound 246], the kinact/KI was found to be 5.17e+06 M⁻¹ s⁻¹. In the case of `CCC[C@@H](NC(=O)N1C(=O)C(CC)(CC)[C@@H]1Oc1ccc(C(=O)N2CCNCC2)cc1)c1ccc(C)cc1` [Compound 247, [S-(R*,S*)]-2-[4-[[(4-Piperazin-1-yl)carbonyl]phenoxy] -((3,3-diethyl-N-[1-(4-methylphenyl)butyl]-4-oxo-1-azetidinecarboxamide] it was 1.1e+06 M⁻¹ s⁻¹; in that of `CCC[C@@H](NC(=O)N1C(=O)C(CC)(CC)[C@@H]1Oc1ccc(C(=O)N2CCN(C(C)C)CC2)cc1)c1ccc(C)cc1` [Compound 248], 2.39e+06 M⁻¹ s⁻¹.

For the molecule `CCC[C@@H](NC(=O)N1C(=O)C(CC)(CC)[C@@H]1Oc1ccc(C(=O)N2CCN(CC(C)C)CC2)cc1)c1ccc(C)cc1` [Compound 249], the kinact/KI is 2.48e+06 M⁻¹ s⁻¹. Take `CCC[C@@H](NC(=O)N1C(=O)C(CC)(CC)[C@@H]1Oc1ccc(C(=O)N2CCN(CC(=O)OCC)CC2)cc1)c1ccc(C)cc1` [Compound 250]: the kinact/KI stood at 1.57e+06 M⁻¹ s⁻¹. `CCC[C@@H](NC(=O)N1C(=O)C(CC)(CC)[C@@H]1Oc1ccc(C(=O)N2CCN(CC(=O)O)CC2)cc1)c1ccc(C)cc1` [Compound 251]: the kinact/KI was determined as 1.95e+06 M⁻¹ s⁻¹. Regarding `CCC[C@@H](NC(=O)N1C(=O)C(CC)(CC)[C@@H]1Oc1ccc(C(=O)N2CCN(CC)CC2)cc1)c1ccc(C)cc1` [Compound 252], the kinact/KI was 2.32e+06 M⁻¹ s⁻¹. Regarding `CCC[C@@H](NC(=O)N1C(=O)C(CC)(CC)[C@@H]1Oc1ccc(C(=O)N2CCN(CCC)CC2)cc1)c1ccc(C)cc1` [Compound 253], the kinact/KI is 1.77e+06 M⁻¹ s⁻¹. In the case of `CCC[C@@H](NC(=O)N1C(=O)C(CC)(CC)[C@@H]1Oc1ccc(C(=O)N2CCN(c3ncccn3)CC2)cc1)c1ccc(C)cc1` [Compound 254] it was 2.14e+06 M⁻¹ s⁻¹; in that of `CCC[C@@H](NC(=O)N1C(=O)C(CC)(CC)[C@@H]1Oc1ccc(C(=O)N2CCN(CCOC(=O)NC)CC2)cc1)c1ccc(C)cc1` [Compound 255], 2.55e+06 M⁻¹ s⁻¹.

Take `CCC[C@@H](NC(=O)N1C(=O)C(CC)(CC)[C@@H]1Oc1ccc(C(=O)N2CCN(CCO)CC2)cc1)c1ccc(C)cc1` [Compound 256a, [S-(R*,S*)]-2-[4-[[(4-Hydroxyethyl)piperazin-1-yl]carbonyl]phenoxy]-((3,3-diethyl-N-[1-(methylphenyl)butyl]-4-oxo-1-azetidinecarboxamide]: the kinact/KI came out at 2e+06 M⁻¹ s⁻¹.

Consider `CCC[C@@H](NC(=O)N1C(=O)C(CC)(CC)[C@@H]1Oc1ccc(CC(N)=O)cc1)c1ccc2c(c1)OCO2` [Compound 257], for which the kinact/KI was 2.34e+06 M⁻¹ s⁻¹.

In the case of `CCC[C@@H](NC(=O)N1C(=O)C(CC)(CC)[C@@H]1Oc1ccc(CC(=O)N2CCOCC2)cc1)c1ccc2c(c1)OCO2` [Compound 258], the kinact/KI was determined as 1.78e+06 M⁻¹ s⁻¹. As for `CCC[C@@H](NC(=O)N1C(=O)C(CC)(CC)[C@@H]1Oc1ccc(CC(=O)N(C)CCN(C)C)cc1)c1ccc2c(c1)OCO2` [Compound 259], the kinact/KI came out at 2.52e+06 M⁻¹ s⁻¹.

As to `CCC[C@@H](NC(=O)N1C(=O)C(CC)(CC)[C@@H]1Oc1ccc(C(=O)N(C)CCN(C)C)cc1)c1ccc2c(c1)OCO2` [Compound 260], the kinact/KI turned out to be 3.32e+06 M⁻¹ s⁻¹. For `CCC[C@@H](NC(=O)N1C(=O)C(CC)(CC)[C@@H]1Oc1ccc(C(=O)N(CC)CC)cc1)c1ccc2c(c1)OCO2` [Compound 261], the kinact/KI worked out at 3.21e+06 M⁻¹ s⁻¹. The value for `CCCCN(C)C(=O)c1ccc(O[C@@H]2N(C(=O)N[C@H](CCC)c3ccc4c(c3)OCO4)C(=O)C2(CC)CC)cc1` [Compound 262] was 3.12e+06 M⁻¹ s⁻¹. In the case of `CCC[C@@H](NC(=O)N1C(=O)C(CC)(CC)[C@@H]1Oc1ccc(C(=O)N2CCN(C)CC2)cc1)c1ccc2c(c1)OCO2` [Compound 263, [S-(R*,S*)]-2-[4-[[(4-Methyl)piperazin-1-yl]carbonyl]phenoxy]-((3,3-diethyl-N-[1-(3,4-methylenedioxyphenyl)butyl]-4-oxo-1-azetidinecarboxamide], the kinact/KI was determined as 3.8e+06 M⁻¹ s⁻¹. As to `CCC[C@@H](NC(=O)N1C(=O)C(CC)(CC)[C@@H]1Oc1ccc(C(=O)N(C)CCN(C)Cc2ccccc2)cc1)c1ccc2c(c1)OCO2` [Compound 264], the kinact/KI worked out at 3.43e+06 M⁻¹ s⁻¹. Consider `CCC[C@@H](NC(=O)N1C(=O)C(CC)(CC)[C@@H]1Oc1ccc(C(=O)N2CCN(C3CC3)CC2)cc1)c1ccc2c(c1)OCO2` [Compound 265, [S-(R*,S*)]-2-[4-[[(4-Cyclopropyl)piperazin-1-yl]carbonyl]phenoxy]-((3,3-diethyl-N-[1-(3,4-methylenedioxyphenyl)butyl]-4-oxo-1-azetidinecarboxamide], for which the kinact/KI was 4.5e+06 M⁻¹ s⁻¹. Regarding `CCC[C@@H](NC(=O)N1C(=O)C(CC)(CC)[C@@H]1Oc1ccc(C(=O)N2CCNCC2)cc1)c1ccc2c(c1)OCO2` [Compound 265a, [S-(R*,S*)]-2-[4-[[(4-Piperazin-1-yl)carbonyl]phenoxy] -((3,3-diethyl-N-[1-(3,4-methylenedioxyphenyl)butyl]-4-oxo-1-azetidinecarboxamide], the kinact/KI was found to be 3.25e+06 M⁻¹ s⁻¹. Consider `CCC[C@@H](NC(=O)N1C(=O)C(CC)(CC)[C@@H]1Oc1ccc(C(=O)N2CCN(CCO)CC2)cc1)c1ccc2c(c1)OCO2` [Compound 265c, [S-(R*,5*)]-2-[4-[[(4-Hydroxyethyl)piperazin-1-yl]carbonyl]phenoxy]-((3,3-diethyl-N-[1-(3,4-methylenedioxyphenyl)butyl]-4-oxo-1-azetidinecarboxamide], for which the kinact/KI stood at 4.8e+06 M⁻¹ s⁻¹. Consider `CCC[C@@H](NC(=O)N1C(=O)C(CC)(CC)[C@@H]1Oc1ccc(C(=O)N2CCOCC2)cc1)c1ccc2c(c1)OCO2` [Compound 265d], for which the kinact/KI was 3.7e+06 M⁻¹ s⁻¹.

On to `CCC[C@@H](NC(=O)N1C(=O)C(CC)(CC)[C@@H]1Oc1ccc(CC(=O)N2CCOCC2)cc1)c1cccc(C(=O)N2CCOCC2)c1` [Compound 266], for which the kinact/KI is 169000 M⁻¹ s⁻¹. `CCC[C@@H](NC(=O)N1C(=O)C(CC)(CC)[C@@H]1Oc1ccc(CC(=O)N(CC)CC)cc1)c1cccc(C(=O)N2CCOCC2)c1` [Compound 267]: the kinact/KI turned out to be 334000 M⁻¹ s⁻¹. In the case of `CCC[C@@H](NC(=O)N1C(=O)C(CC)(CC)[C@@H]1Oc1ccc(CC(=O)N(C)CCN(C)C)cc1)c1cccc(C(=O)N2CCOCC2)c1` [Compound 268] it was 142000 M⁻¹ s⁻¹; in that of `CCC[C@@H](NC(=O)N1C(=O)C(CC)(CC)[C@@H]1Oc1ccc(CC(N)=O)cc1)c1ccc(C)c(C(=O)N2CCOCC2)c1` [Compound 269], 637000 M⁻¹ s⁻¹.
